Experimental data reported in US20240336566A1, “CRYSTALLINE FORMS OF A COMPOUND FOR THE TARGETED DEGRADATION OF THE ANDROGEN RECEPTOR” (Arvinas Operations, Inc., priority 2023, published 2024).
Read-outs that look alike come from different tables or passages of the source.

Tests used:
[1] = Primary crystallization screen: XRPD before and after drying at 40° C.; type: physicochemical; parameters: key to XRPD Pattern Post-Thermal Cycling / XRPD Pattern Anti-Solvent Addition / XRPD Pattern Evaporation / XRPD Pattern Post-Thermal Cycling (dried): 1—Free base Pattern 1; 2—Free base Pattern 2; 3—Free base Pattern 3; 4—Free base Pattern 4; S—Potential Salt Pattern 1; A—Amorphous; C—Counterion present; *—Poorly crystalline; t—Results obtained from temperature cycling; e—Results obtained from evaporation
Method: • 34×40 mg of Compound A was weighed into vials before the selected solvents were added to prepare slurries, where possible. See Table 29 for a list of solvent systems used and the volume of solvent used. • Stirrer bars were added to the vials, before the vials were sealed and temperature cycled with stirring between 5° C. and 40° C. The heating rate was 0.1° C./min and the samples were held at 5° C. and 40° C. for 2 hours. • After temperature cycling for 4 days, observations were made (see Table 29). Slurries were centrifuge filtered and the solids were analyzed by XRPD • The solids were dried at 40° C. for approximately 18 h before being re-analyzed by XRPD. • Saturated solutions were then split into 3 vials for the following experiments • Evaporation at ambient temperature • Cooling (5° C.). • Where no solids were obtained after 72 hours, the samples were moved to the freezer at −20° C. for further cooling. • Where no solids were obtained from further cooling, the samples were allowed to evaporate at ambient temperature. • Anti-solvent addition at ambient temperature. • Where no solids were obtained after 72 hours the samples were moved to the freezer at −20° C. to encourage crystallization. • Where no solids were obtained from cooling, the samples were allowed to evaporate at ambient temperature.

[2] = Solvent solubility screen of Compound A (aliquot addition, HPLC of saturated solutions); type: physicochemical; details: organic solvent or mixture
Method: A known volume aliquot (typically 5 volumes) of solvent was added to approximately 5 mg of Compound A. See Table 14 for the selected solvents for the solvent solubility screen.
Between each addition, the mixture was checked for dissolution and where no dissolution was apparent, the mixture was heated to ca. 40° C. and checked again. This procedure was continued until dissolution was observed or until 100 volumes of solvent had been added.
Where dissolution was not observed, solids were isolated centrifugally and analyzed by XRPD. The saturated solutions were analyzed by HPLC to obtain the solubility.

[3] = Acetonitrile:Water (75:25% v/v)
[4] = Dichloromethane:Methanol (50:50% v/v)
[5] = Dichloromethane:Methanol (75:25% v/v)

XRPD Pattern Anti-Solvent Addition ([1]; 1,4-Dioxane): A
XRPD Pattern Cooling ([1]; 1,4-Dioxane): A e
XRPD Pattern Evaporation ([1]; 1,4-Dioxane): A x
XRPD Pattern Post-Thermal Cycling ([1]; 1,4-Dioxane): A
XRPD Pattern Post-Thermal Cycling (dried) ([1]; 1,4-Dioxane): A *
XRPD Pattern Evaporation ([1]; 1-Propanol): A
XRPD Pattern Evaporation ([1]; 2-Butanone (MEK)): 1
XRPD Pattern Evaporation ([1]; Acetone:Water (90:10% v/v)): 2
XRPD Pattern Anti-Solvent Addition ([1]; Acetonitrile): A x
XRPD Pattern Evaporation ([1]; Acetonitrile): A +
XRPD Pattern Post-Thermal Cycling ([1]; Acetonitrile): 1
XRPD Pattern Post-Thermal Cycling (dried) ([1]; Acetonitrile): 1
XRPD Pattern Evaporation [1, 3]: 6 (6—Free base Pattern 6)
XRPD Pattern Post-Thermal Cycling [1, 3]: 6 (6—Free base Pattern 6)
XRPD Pattern Post-Thermal Cycling (dried) [1, 3]: 6 (6—Free base Pattern 6)
XRPD Pattern Post-Thermal Cycling ([1]; Anisole): 5 (5—Free base Pattern 5)
XRPD Pattern Post-Thermal Cycling (dried) ([1]; Anisole): 8 (8—Free base Pattern 8)
XRPD Pattern Post-Thermal Cycling ([1]; Butyl acetate): 1
XRPD Pattern Post-Thermal Cycling (dried) ([1]; Butyl acetate): 1
XRPD Pattern Post-Thermal Cycling ([1]; Dichloromethane): 6 (6—Free base Pattern 6)
XRPD Pattern Post-Thermal Cycling (dried) ([1]; Dichloromethane): 6 (6—Free base Pattern 6)
XRPD Pattern Post-Thermal Cycling [1, 4]: 2
XRPD Pattern Post-Thermal Cycling (dried) [1, 4]: 2
XRPD Pattern Anti-Solvent Addition [1, 5]: A
XRPD Pattern Cooling [1, 5]: A e
XRPD Pattern Evaporation ([1]; Diethyl ether): A x
XRPD Pattern Evaporation ([1]; Ethanol): A x
XRPD Pattern Evaporation ([1]; Ethanol:Water (50:50% v/v)): A x
XRPD Pattern Post-Thermal Cycling ([1]; Ethyl acetate): 1
XRPD Pattern Post-Thermal Cycling (dried) ([1]; Ethyl acetate): 1
XRPD Pattern Evaporation ([1]; Isopropyl acetate): A x
XRPD Pattern Cooling ([1]; Methanol): A e
XRPD Pattern Evaporation ([1]; Methanol): A x
XRPD Pattern Evaporation ([1]; Methylisobutyl ketone): A x
XRPD Pattern Post-Thermal Cycling ([1]; Methylisobutyl ketone): 1
XRPD Pattern Post-Thermal Cycling (dried) ([1]; Methylisobutyl ketone): 1
XRPD Pattern Anti-Solvent Addition ([1]; N,N′-Dimethylacetamide): 1
XRPD Pattern Anti-Solvent Addition ([1]; N,N′-Dimethylformamide): 1
XRPD Pattern Cooling ([1]; N,N′-Dimethylformamide): A e
XRPD Pattern Evaporation ([1]; N,N′-Dimethylformamide): 1
XRPD Pattern Post-Thermal Cycling ([1]; Tetrahydrofuran): 1
XRPD Pattern Post-Thermal Cycling (dried) ([1]; Tetrahydrofuran): 1
XRPD Pattern Anti-Solvent Addition ([1]; Tetrahydrofuran:Water (98:2% v/v)): A
XRPD Pattern Post-Thermal Cycling ([1]; Toluene): 7 (7—Free base Pattern 7)
XRPD Pattern Post-Thermal Cycling (dried) ([1]; Toluene): 8 (8—Free base Pattern 8)
XRPD Pattern Post-Thermal Cycling ([1]; Water): A
XRPD Pattern Post-Thermal Cycling (dried) ([1]; Water): A
solubility ([2]; 1,4-dioxane, thermodynamic from solid, 1,4-Dioxane, read-out: Approximate Solubility): 100000 µg/mL
solubility ([2]; 1,4-dioxane, thermodynamic from solid, 1,4-Dioxane, read-out: Approximate solubility): ~100000 µg/mL
solubility ([2]; 1,4-dioxane, thermodynamic from solid, 1,4-dioxane, read-out: solubility): > 100000 µg/mL
solubility ([2]; 1-butanol, 40 °C, thermodynamic from solid, 1-Butanol, read-out: Approximate Solubility): 188 µg/mL
solubility ([2]; 1-propanol, 40 °C, thermodynamic from solid, 1-Propanol, read-out: Approximate Solubility): 232 µg/mL
solubility ([2]; 2-Butanone (MEK), 40 °C, thermodynamic from solid, 2-Butanone (MEK), read-out: Approximate Solubility): 2130 µg/mL
solubility ([2]; 2-Ethoxyethanol, 40 °C, thermodynamic from solid, 2-Ethoxyethanol, read-out: Approximate Solubility): 1550 µg/mL
solubility ([2]; 2-Methyl THF, 40 °C, thermodynamic from solid, 2-Methyl THF, read-out: Approximate Solubility): 2890 µg/mL
solubility ([2]; 2-Propanol, 40 °C, thermodynamic from solid, 2-Propanol, read-out: Approximate Solubility): 205 µg/mL
solubility ([2]; 2-propanol:water (90:10% v/v), 40 °C, thermodynamic from solid, 2-Propanol:Water (90:10% v/v), read-out: Approximate Solubility): 186 µg/mL
solubility ([2]; 3-Methyl-1-butanol, 40 °C, thermodynamic from solid, 3-Methyl-1-butanol, read-out: Approximate Solubility): 1220 µg/mL
solubility ([2]; Acetone, 40 °C, thermodynamic from solid, Acetone, read-out: Approximate Solubility): 2730 µg/mL
SMILES: COc1cc(O[C@H]2C(C)(C)[C@H](NC(=O)c3ccc(N4CCC(CN5CCN(c6ccc(C(=O)N[C@H]7CCC(=O)NC7=O)c(F)c6)CC5)CC4)cc3)C2(C)C)ccc1C#N [Compound A, 4-(4-((1-(4-(((1R,3R)-3-(4-cyano-3-methoxyphenoxy)-2,2,4,4-tetramethylcyclobutyl)carbamoyl)phenyl)piperidin-4-yl)methyl)piperazin-1-yl)-N—((S)-2,6-dioxopiperidin-3-yl)-2-fluorobenzamide]
